In brackets after ≈: the same amount, converted by molar mass. Several values for one entry are separate records, joined by “and”; a condition that tells them apart may be missing. Equal values may be shown once. Read-outs that look alike come from different tables or passages of the source.
Columns and labels:
[1] = tested on: S. aureus clinical isolates; experiment: microbe, parasite or virus in culture; format: cell-based; conditions: Staphylococcus aureus, read-out: MIC
[2] = Pharmacokinetics measurement in skin tissue; format: in vivo, mice
Experimental: Pharmacokinetics measurement of ULD1 and ULD2 in skin tissue was conducted parallelly with the mice dermal infection study. In all cases, skin tissue samples were collected at the termination and homogenized following the same method as homogenate preparation for bacterial enumeration. Before measurement, protein precipitation was performed by treating the samples with acetonitrile. Analytics were the performed by liquid chromatography coupled mass spectrometry (LC/MS/MS) on an AB SCIEX QTRAP mass spectrometer in electrospray, positive ions ionization mode, and with Multiple Reaction Monitoring scan mode. Samples were analyzed on a Phenomenex Luna 5u Phenyl-Hexyl 50 × 2.0 mm HPLC column in a mobile phase of A: acetonitrile/formic acid = 100/0.2 (v/v), and mobile phase of B: water / formic acid = 100/0.2 (v/v). The column’s temperature was set to 30 °C, the injection volumes were 10 μL, and measurement time was 5 minutes in all cases. Oxybutynin (0.01 ng/μL in acetonitrile) was used as an internal standard for the measurement. Finally, the concentration of the drug in tissue samples was calculated from the peak area ratio.

MCF-7 cells = conditions: LDH assay
Experimental: Cytotoxicity of compounds on HepG2 and MCF-7 mammalian cell lines was determined by using a standard LDH assay. Briefly, HepG2 and MCF-7 cells were cultured in Eagle’s MEM medium (from Gibco) supplemented with 2 mM L-glutamine (Sigma), 100 U/mL penicillin (Sigma), and 100 μg/mL streptomycin (Sigma), and 10% FBS (Gibco) at 37 °C and under 5% CO2. Next, LDH assays were performed according to manufacturer instructions (Thermo Fisher Scientific, Massachusetts, USA). By using a CyQUANT LDH Cytotoxicity Assay Kit. Firstly, the cells were seeded in 96-well microtiter plates at 10^5 cells/mL (100 μL/well) and allowed to attach overnight. […] Lysis buffer (10 μL, Thermo Fisher Scientific) was then added to the maximal LDH activity control wells and incubated additional 45 minutes. The cell culture supernatant (50 μL) was then transferred to a new 96-well plate and mixed with 50 μL of the reaction mixture. After 30 minutes on room temperature, reactions were stopped with 50 μL of the Stop solution. Absorbance (490 nm and 680 nm) was measured with the automatic microplate reader Synergy 4 Hybrid Microplate Reader (BioTek, VT, USA). All experiments were performed in triplicates and repeated 3 times. Statistical significance (P < 0.05) was calculated with 2-tailed Welch’s t-test between treated groups and DMSO. The percentage of cytotoxicity was determined according to the following equation: %Cytotoxicity=(CompoundtreatedLDHactivity-SpontaneousLDHactivity/MaximumLDHactivity-SpontaneousLDHactivity)*100

human red blood cells = experiment: Haemolysis analysis
Experimental: Next, 600 μl of this EDTA-treated blood was washed in TBS buffer (10 mM TRIS, 150 mM NaCl [pH 7.2]) and centrifuged at 1,500 g for 1 minute until the supernatant became colorless. The aliquot of the final pellet (200 μL) was diluted to 5 mL with TBS buffer. […] Next, 100 μL of red blood cell suspension was pipetted into sterile Eppendorf tubes together with 100 μL of 2-fold serial dilution of the compounds (final concentration ranged between 100 μg/mL–0.1 μg/mL in a final volume of 200 μL). The plate was incubated for one hour at 37 °C followed by centrifugation at 1,500 g for 1 minute to sediment all red blood cells. Next, all supernatants were subjected to LDH and Haemolysis-Icterus-Lipaemia (HIL) index determination on a Roche Modular P800 analyzer according to the manufacturer’s instructions. After completion of this step the rest of the supernatants were transferred to sterile 96-well plates for the measurement of their optical density at 560-nm wavelength (in a Multiskan FC microplate reader, Thermo Scientific). Melittin (Bachem) at a concentration of 50 μg/mL, and TBS and 10% DMSO/TBS were served as positive (100% hemolysis) and negative (no hemolysis) controls, respectively.

SMILES: Cc1[nH]c(C(=O)Nc2nc3c(OCc4ccccc4)cc(C(=O)O)cc3s2)c(Cl)c1Cl [ULD2]
- MIC ([1]; MRSA, S. aureus IHMA 1622527, MRSA / VSSA): 0.25 µg/mL (≈ 0.525 µM)
- MIC ([1]; MRSA, S. aureus IHMA 1666371, MRSA / VSSA): 0.25 µg/mL (≈ 0.525 µM)
- MIC ([1]; MRSA, S. aureus IHMA 1695391, MRSA / VSSA): 0.12 µg/mL (≈ 0.252 µM)
- MIC ([1]; MRSA, S. aureus IHMA 1703428, MRSA / VSSA): 0.5 µg/mL (≈ 1.05 µM)
- MIC ([1]; MRSA, S. aureus IHMA 1720350, MRSA / VSSA): 0.5 µg/mL (≈ 1.05 µM)
- MIC ([1]; MRSA, S. aureus IHMA 1732989, MRSA / VSSA): 0.5 µg/mL (≈ 1.05 µM)
- MIC ([1]; MRSA, S. aureus IHMA 1742231, MRSA / VSSA): 0.12 µg/mL (≈ 0.252 µM)
- MIC ([1]; MRSA, S. aureus IHMA 1766357, MRSA / VSSA): 0.12 µg/mL (≈ 0.252 µM)
- MIC ([1]; MSSA / NRS 12 / VISA, S. aureus IHMA 1308244, NRS12, MSSA / VISA): 0.5 µg/mL (≈ 1.05 µM)
- MIC ([1]; MSSA / NRS 13 / VISA, S. aureus IHMA 1308245, NRS13, MSSA / VISA): 0.5 µg/mL (≈ 1.05 µM)
- MIC ([1]; MSSA / NRS 14 / VISA, S. aureus IHMA 1308246, NRS14, MSSA / VISA): 1 µg/mL (≈ 2.1 µM)
- MIC ([1]; MSSA / NRS 17 / VISA, S. aureus IHMA 1308247, NRS17, MSSA / VISA): 1 µg/mL (≈ 2.1 µM)
- MIC ([1]; MSSA / NRS 28 / VISA, S. aureus IHMA 1308249, NRS28, MSSA / VISA): 1 µg/mL (≈ 2.1 µM)
- MIC ([1]; MSSA / NRS 52, S. aureus IHMA 1308252, NRS52, MSSA / VSSA* (*Expected VAN intermediate, confirmed VAN susceptible twice), test date 2018-11-07): 0.12 µg/mL (≈ 0.252 µM)
- MIC ([1]; MSSA / USA100 / VRSA, S. aureus IHMA 672236, VRS6, MSSA / VRSA, USA100): 0.12 µg/mL (≈ 0.252 µM)
- MIC ([1]; MSSA, S. aureus IHMA 1563826, MSSA / VSSA): 0.25 µg/mL (≈ 0.525 µM)
- MIC ([1]; MSSA, S. aureus IHMA 1565492, MSSA / VSSA): 0.12 µg/mL (≈ 0.252 µM)
- MIC ([1]; MSSA, S. aureus IHMA 1569499, MSSA / VSSA): 0.5 µg/mL (≈ 1.05 µM)
- MIC ([1]; MSSA, S. aureus IHMA 1569754, MSSA / VSSA): 0.12 µg/mL (≈ 0.252 µM)
- MIC ([1]; MSSA, S. aureus IHMA 1574202, MSSA / VSSA): 0.25 µg/mL (≈ 0.525 µM)
- MIC ([1]; MSSA, S. aureus IHMA 1575652, MSSA / VSSA): 0.25 µg/mL (≈ 0.525 µM)
- MIC ([1]; MSSA, S. aureus IHMA 1575779, MSSA / VSSA): 0.5 µg/mL (≈ 1.05 µM)
- MIC ([1]; MSSA, S. aureus IHMA 1576329, MSSA / VSSA): 0.5 µg/mL (≈ 1.05 µM)
- MIC ([1]; MSSA, S. aureus IHMA 1577800, MSSA / VSSA): 0.25 µg/mL (≈ 0.525 µM)
- MIC ([1]; MSSA, S. aureus IHMA 1578560, MSSA / VSSA): 0.5 µg/mL (≈ 1.05 µM)
- MIC ([1]; MSSA, S. aureus IHMA 1580233, MSSA / VSSA): 0.12 µg/mL (≈ 0.252 µM)
- MIC ([1]; MSSA, S. aureus IHMA 1580925, MSSA / VSSA): 0.25 µg/mL (≈ 0.525 µM)
- MIC ([1]; MSSA, S. aureus IHMA 1580955, MSSA / VSSA): 0.5 µg/mL (≈ 1.05 µM)
- MIC ([1]; MSSA, S. aureus IHMA 1582586, MSSA / VSSA): 0.5 µg/mL (≈ 1.05 µM)
- MIC ([1]; MSSA, S. aureus IHMA 1582691, MSSA / VSSA): 0.25 µg/mL (≈ 0.525 µM)
- MIC ([1]; MSSA, S. aureus IHMA 1584230, MSSA / VSSA): 0.5 µg/mL (≈ 1.05 µM)
- MIC ([1]; MSSA, S. aureus IHMA 1587279, MSSA / VSSA): 0.5 µg/mL (≈ 1.05 µM)
- MIC ([1]; MSSA, S. aureus IHMA 1591459, MSSA / VSSA): 0.25 µg/mL (≈ 0.525 µM)
- MIC ([1]; MSSA, S. aureus IHMA 1592749, MSSA / VSSA): 0.5 µg/mL (≈ 1.05 µM)
- MIC ([1]; MSSA, S. aureus IHMA 1592751, MSSA / VSSA): 0.25 µg/mL (≈ 0.525 µM)
- MIC ([1]; MSSA, S. aureus IHMA 1594297, MSSA / VSSA): 1 µg/mL (≈ 2.1 µM)
- MIC ([1]; MSSA, S. aureus IHMA 1597120, MSSA / VSSA): 0.5 µg/mL (≈ 1.05 µM)
- MIC ([1]; MSSA, S. aureus IHMA 1597125, MSSA / VSSA): 0.5 µg/mL (≈ 1.05 µM)
- MIC ([1]; MSSA, S. aureus IHMA 1599157, MSSA / VSSA): 0.5 µg/mL (≈ 1.05 µM)
- MIC ([1]; MSSA, S. aureus IHMA 1599506, MSSA / VSSA): 0.12 µg/mL (≈ 0.252 µM)
- MIC ([1]; MSSA, S. aureus IHMA 1602078, MSSA / VSSA): 0.5 µg/mL (≈ 1.05 µM)
- MIC ([1]; MSSA, S. aureus IHMA 1604586, MSSA / VSSA): 0.25 µg/mL (≈ 0.525 µM)
- MIC ([1]; MSSA, S. aureus IHMA 1604609, MSSA / VSSA): 0.5 µg/mL (≈ 1.05 µM)
- MIC ([1]; MSSA, S. aureus IHMA 1609919, MSSA / VSSA): 0.25 µg/mL (≈ 0.525 µM)
- MIC ([1]; MSSA, S. aureus IHMA 1622864, MSSA / VSSA): 0.25 µg/mL (≈ 0.525 µM)
- MIC ([1]; MSSA, S. aureus IHMA 1626392, MSSA / VSSA): 0.5 µg/mL (≈ 1.05 µM)
- MIC ([1]; MSSA, S. aureus IHMA 1713793, MSSA / VSSA): 0.5 µg/mL (≈ 1.05 µM)
- Drug concentration in mouse skin tissue (individual mice) ([2]; 73 h, 3 days twice-a-day topical 20 μL ointment containing 2% drug): 4224 ng/mL and 6654 ng/mL and 10244 ng/mL
- Drug concentration in mouse skin tissue, Mean ([2]; 73 h, 3 days twice-a-day topical 20 μL ointment containing 2% drug, n = 3): 7041 ng/mL
- skin concentration as multiple of the MIC in wild-type S. aureus VISA ([2]; topical treatment, mouse skin): up to 300 times the MIC
- Max. % inhibition at 100 µM (MCF-7 cells): Max. % inhibition at 100 µM: 8.43%
- LDH activity (human red blood cells; human red blood cells, 100 µg/mL): 10 Unit/mL
- hemolytic activity on human red blood cells (human red blood cells; in words): no biocompatibility concerns

From publication PMC7561186, “Rational design of balanced dual-targeting antibiotics with limited resistance” (PLoS Biology, 2020)
